# Data from US20250122218A1, “MODULATORS OF CYSTIC FIBROSIS TRANSMEMBRANE CONDUCTANCE REGULATOR” (Vertex Pharmaceuticals Incorporated, priority 2022, published 2025).
# Target: T1, CFTR in F508del/MF-HBE cells (Homo sapiens, UniProt P13569, DEL508-508)
# T1 construct: human bronchial epithelial (HBE) cells derived from CF subjects heterozygous for F508del and a minimal function CFTR mutation; endogenous in cells; host or cells: primary human bronchial epithelial cells from CF subjects (F508del/MF-HBE)
# T1 sequence (P13569 with tags, fused parts or gaps DEL508-508): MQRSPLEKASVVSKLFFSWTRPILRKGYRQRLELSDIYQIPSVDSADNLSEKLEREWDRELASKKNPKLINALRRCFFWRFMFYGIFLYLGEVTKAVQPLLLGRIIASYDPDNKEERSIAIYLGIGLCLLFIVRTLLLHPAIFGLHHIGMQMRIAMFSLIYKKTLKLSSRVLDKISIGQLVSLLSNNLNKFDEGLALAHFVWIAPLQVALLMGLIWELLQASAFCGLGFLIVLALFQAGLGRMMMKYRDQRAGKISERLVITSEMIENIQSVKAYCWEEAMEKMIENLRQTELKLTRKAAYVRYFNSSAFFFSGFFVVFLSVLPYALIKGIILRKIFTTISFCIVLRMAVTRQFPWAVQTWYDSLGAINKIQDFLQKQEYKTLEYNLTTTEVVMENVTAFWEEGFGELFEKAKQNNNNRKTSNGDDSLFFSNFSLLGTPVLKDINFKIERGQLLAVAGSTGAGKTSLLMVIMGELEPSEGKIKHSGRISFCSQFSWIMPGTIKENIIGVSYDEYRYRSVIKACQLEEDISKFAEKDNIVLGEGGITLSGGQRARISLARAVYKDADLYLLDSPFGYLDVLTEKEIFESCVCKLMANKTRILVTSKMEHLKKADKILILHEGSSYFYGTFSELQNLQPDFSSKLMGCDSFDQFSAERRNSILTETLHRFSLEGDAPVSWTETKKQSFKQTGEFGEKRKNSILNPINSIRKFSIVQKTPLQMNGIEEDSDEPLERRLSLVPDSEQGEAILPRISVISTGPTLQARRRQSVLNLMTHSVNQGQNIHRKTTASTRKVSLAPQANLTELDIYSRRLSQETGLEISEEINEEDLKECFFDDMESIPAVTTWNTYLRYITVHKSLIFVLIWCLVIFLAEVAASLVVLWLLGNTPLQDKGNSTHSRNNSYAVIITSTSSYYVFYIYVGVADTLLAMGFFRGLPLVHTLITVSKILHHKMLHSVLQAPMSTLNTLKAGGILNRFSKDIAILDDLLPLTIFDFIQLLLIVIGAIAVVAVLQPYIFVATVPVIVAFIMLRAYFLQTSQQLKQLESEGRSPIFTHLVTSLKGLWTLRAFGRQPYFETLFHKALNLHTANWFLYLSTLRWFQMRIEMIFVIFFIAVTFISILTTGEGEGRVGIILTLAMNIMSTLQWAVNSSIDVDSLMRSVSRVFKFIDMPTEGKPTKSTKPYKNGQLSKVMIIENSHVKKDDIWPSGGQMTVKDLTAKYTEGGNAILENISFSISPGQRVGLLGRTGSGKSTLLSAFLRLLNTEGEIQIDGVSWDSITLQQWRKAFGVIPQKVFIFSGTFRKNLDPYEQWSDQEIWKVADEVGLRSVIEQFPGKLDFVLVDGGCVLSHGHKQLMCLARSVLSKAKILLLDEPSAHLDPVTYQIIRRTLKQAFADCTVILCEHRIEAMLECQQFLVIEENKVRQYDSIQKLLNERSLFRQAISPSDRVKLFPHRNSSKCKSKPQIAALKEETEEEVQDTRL
# Assay: Ussing chamber assay of CFTR-mediated short-circuit currents (identification of potentiator compounds)
# Assay type: cell-based
# Conditions: potentiator incubated 18-24 hours at 37° C. in combination with 10 μM corrector, in the presence of 20% human serum, CFTR-mediated ISC
# Protocol: Ussing chamber experiments were performed using human bronchial epithelial (HBE) cells derived from CF subjects heterozygous for F508del and a minimal function CFTR mutation (F508del/MF-HBE) and cultured as previously described (Neuberger T, Burton B, Clark H, Van Goor F; Methods Mol. Biol. 2011:741:39-54). After four days the apical media was removed, and the cells were grown at an air liquid interface for >14 days prior to use.
# To isolate the CFTR-mediated short-circuit (ISC) current, F508del/MF-HBE grown on Costar® Snapwell™ cell culture inserts were mounted in an Ussing chamber and the transepithelial ISC was measured under voltage-clamp recording conditions (Vhold=0 mV) at 37° C. The basolateral solution contained (in mM) 145 NaCl, 0.83 K2HPO4, 3.3 KH2PO4, 1.2 MgCl2, 1.2 CaCl2), 10 Glucose, 10 HEPES (pH adjusted to 7.4 with NaOH) and the apical solution contained (in mM) 145 NaGluconate, 1.2 MgCl2, 1.2 CaCl2), 10 glucose, 10 HEPES (pH adjusted to 7.4 with NaOH) and 30 μM amiloride to block the epithelial sodium channel. Forskolin (20 μM) was added to the apical surface to activate CFTR, followed by apical addition of a CFTR inhibitor cocktail consisting of BPO, GlyH-101 and CFTR inhibitor 172 (each at 20 μM final assay concentration) to specifically isolate CFTR currents. The CFTR-mediated ISC (μA/cm^2) for each condition was determined from the peak forskolin response to the steady-state current following inhibition.
# The activity of the CFTR potentiator compounds on the CFTR-mediated ISC was determined in Ussing chamber studies as described above. The F508del/MF-HBE cell cultures were incubated with the potentiator compounds at a range of concentrations in combination with 10 μM (14S)-8-[3-(2-{dispiro[2.0.2.1]heptan-7-yl}ethoxy)-1H-pyrazol-1-yl]-12,12-dimethyl-2λ^6-thia-3,9,11,18,23-pentaazatetracyclo[17.3.1.111,14.05,10]tetracosa-1(22),5,7,9,19(23),20-hexaene-2,2,4-trione for 18-24 hours at 37° C. and in the presence of 20% human serum. The concentration of potentiator compounds and (14S)-8-[3-(2-{dispiro[2.0.2.1]heptan-7-yl}ethoxy)-1H-pyrazol-1-yl]-12,12-dimethyl-2λ^6-thia-3,9,11,18,23-pentaazatetracyclo[17.3.1.111,14.05,10]tetracosa-1(22),5,7,9,19(23),20-hexaene-2,2,4-trione used during the 18-24 hours incubations was kept constant throughout the Ussing chamber measurement of the CFTR-mediated ISC to ensure compounds were present throughout the entire experiment. The efficacy and potency of the putative F508del potentiators was compared to that of the known potentiator, ivacaftor (N-[2,4-bis(1,1-dimethylethyl)-5-hydroxyphenyl]-1,4-dihydro-4-oxoquinoline-3-carboxamide).
row,Molecule,EC50 [nM]
1,"17-amino-12-[(3- cyclobutyl-5-fluoro- phenyl)methyl]-6- hydroxy-6,15- bis(trifluoromethyl)- 8,19-dioxa-3,4,12,18- tetrazatricyclo [12.3.1.12,5] nonadeca- 1(18),2,4,14,16- pentaen-13-one [Compound 263]",< 500
2,"Nc1cc(C(F)(F)F)c2nc1-c1nnc(o1)[C@@](O)(C(F)(F)F)CCCCCN(C1CC3(C1)CN(C(=O)C1CC1)C3)C2=O [Compound 191, (6R)-17-amino-12-[2-(cyclopropanecarbonyl)-2-azaspiro[3.3]heptan-6-yl]-6-hydroxy-6,15-bis(trifluoromethyl)-19-oxa-3,4,12,18-tetrazatricyclo[12.3.1.12,5]nonadeca-1(18),2,4,14,16-pentaen-13-one]",> 1000
3,"Nc1cc(C(F)(F)F)c2nc1-c1nnc(o1)[C@@](O)(C(F)(F)F)CCCCCN(C1CC3(CNC3)C1)C2=O [Compound 99, (6R)-17-Amino-12-(2-azaspiro[3.3]heptan-6-yl)-6-hydroxy-6,15-bis (trifluoromethyl)-19-oxa-3,4,12,18-tetrazatricyclo [12.3.1.12,5] nonadeca-1(18),2,4,14,1 6-pentaen-13-one]",> 1000
4,"Nc1cc(C(F)(F)F)c2nc1-c1nnc(o1)[C@@](O)(C(F)(F)F)CCCCCN(Cc1cc(F)cc(C3CC3)c1)C2=O [Compound 247, (6R)-17-amino-12-[(3-cyclopropyl-5-fluoro-phenyl)methyl]-6-hydroxy-6,15-bis(trifluoromethyl)-19-oxa-3,4,12,18-tetrazatricyclo [12.3.1.12,5] nonadeca-1(18),2,4,14,16-pentaen-13-one]",< 500
5,"Nc1cc(C(F)(F)F)c2nc1-c1nnc(o1)[C@](O)(C(F)(F)F)CCCCCCC2=O (single isomer, unassigned) [Compound 7]",> 1000
6,"Nc1cc(C(F)(F)F)c2nc1-c1nnc(o1)[C@@](O)(C(F)(F)F)CCCCCN(C1CCS(=O)(=O)CC1)C2=O [Compound 102, (6R)-17-Amino-12-(1,1-dioxothian-4-yl)-6-hydroxy-6,15-bis (trifluoromethyl)-19-oxa-3,4,12,18-tetrazatricyclo [12.3.1.12,5] nonadeca-1(18),2,4,14,1 6-pentaen-13-one]",> 1000
7,"CCCc1ccccc1CN1CCCCC[C@](O)(C(F)(F)F)C2=NN=C(O2)c2nc(c(C(F)(F)F)cc2N)C1=O [Compound 168, (6R)-17-amino-6-hydroxy-12-[(2-propylphenyl)methyl]-6,15-bis (trifluoromethyl)-19-oxa-3,4,12,18-tetrazatricyclo [12.3.1.12,5] nonadeca-1(18),2,4,14,1 6-pentaen-13-one]",< 500
8,"Nc1cc(C(F)(F)F)c2nc1-c1nnc(o1)[C@@](O)(C(F)(F)F)CCCCCC1(CC1)C2=O [Compound 49, (6R)-17-amino-6-hydroxy-6,15-bis(trifluoromethyl)spiro[19-oxa-3,4,18-triazatricyclo[12.3.1.12,5]nonadeca-1(18),2,4,14,16-pentaene-12,1′-cyclopropane]-13-one]",< 500
9,"Cn1cc(CN2CCCCC[C@](O)(C(F)(F)F)C3=NN=C(O3)c3nc(c(C(F)(F)F)cc3N)C2=O)cn1 [Compound 118, (6R)-17-Amino-6-hydroxy-12-[(1-methylpyrazol-4-yl)methyl]-6,15-bis (trifluoromethyl)-19-oxa-3,4,12,18-tetrazatricyclo [12.3.1.12,5] nonadeca-1(18),2,4,14,1 6-pentaen-13-one]",> 1000
10,"CC(C)(C)c1ncc(CN2CCCCC[C@](O)(C(F)(F)F)C3=NN=C(O3)c3nc(c(C(F)(F)F)cc3N)C2=O)cn1 [Compound 171, (6R)-17-amino-12-[(2-tert-butylpyrimidin-5-yl)methyl]-6-hydroxy-6,15-bis (trifluoromethyl)-19-oxa-3,4,12,18-tetrazatricyclo [12.3.1.12,5] nonadeca-1(18),2,4,14,1 6-pentaen-13-one]",< 500
11,"CCC(C)(C)N1CCCCC[C@](O)(C(F)(F)F)C2=NN=C(O2)c2nc(c(C(F)(F)F)cc2N)C1=O [Compound 90, (6R)-17-Amino-12-(1,1-dimethylpropyl)-6-hydroxy-6,15-bis(trifluoromethyl)-19-oxa-3,4,12,18-tetrazatricyclo [12.3.1.12,5] nonadeca-1(18),2,4,14,1 6-pentaen-13-one]",< 500
12,"COc1ccc(CN2CCCCC[C@](O)(C(F)(F)F)C3=NN=C(O3)c3nc(c(C(F)(F)F)cc3N)C2=O)c(F)c1 [Compound 177, (6R)-17-amino-12-[(2-fluoro-4-methoxy-phenyl)methyl]-6-hydroxy-6,15-bis (trifluorom ethyl)-19-oxa-3,4,12,18-tetrazatricyclo [12.3.1.12,5] nonadeca-1(18),2,4,14,1 6-pentaen-13-one]",< 500

# More lines, now with the values ahead:
row,EC50 [nM],Molecule
1,< 500,"Nc1cc(C(F)(F)F)c2nc1-c1nnc(o1)C(O)(C(F)(F)F)CCCCCN(C(=O)C1CCC1)C2 (single isomer, unassigned) [Compound 22, [17-amino-6-hydroxy-6,15-bis(trifluoromethyl)-19-oxa-3,4,12,18-tetrazatricyclo[12.3.1.12,5]nonadeca-1(18),2,4,14,16-pentaen-12-yl]-cyclobutyl-methanone]"
2,< 500,"CC1(C)CCCC[C@](O)(C(F)(F)F)C2=NN=C(O2)c2nc(c(C(F)(F)F)cc2N)C(=O)N(Cc2ccc3c(c2)OC(F)(F)O3)C1 [Compound 124, (6R)-18-amino-13-[(2,2-difluoro-1,3-benzodioxol-5-yl)methyl]-6-hydroxy-11,11-dimethyl-6,16-bis (trifluoromethyl)-20-oxa-3,4,13,19-tetrazatricyclo [13.3.1.12,5]icosa-1(19),2,4,15,1 7-pentaen-14-one]"
3,< 500,"Nc1cc(C(F)(F)F)c2nc1-c1nnc(o1)[C@@](O)(C(F)(F)F)CCCCCN(Cc1ccc(OC(F)F)cc1)C2=O [Compound 266, (6R)-17-amino-12-[[4-(difluoromethoxy)phenyl]methyl]-6-hydroxy-6,15-bis(trifluoromethyl)-19-oxa-3,4,12,18-tetrazatricyclo [12.3.1.12,5] nonadeca-1(18),2,4,14,16-pentaen-13-one]"
4,< 500,"CC(C)Oc1ccc(CN2CCCCC[C@](O)(C(F)(F)F)C3=NN=C(O3)c3nc(c(C(F)(F)F)cc3N)C2=O)cc1 [Compound 143, (6R)-17-amino-6-hydroxy-12-[(4-isopropoxyphenyl)methyl]-6,15-bis (trifluoromethyl)-19-oxa-3,4,12,18-tetrazatricyclo [12.3.1.12,5] nonadeca-1(18),2,4,14,1 6-pentaen-13-one]"
5,< 500,"Nc1cc(C(F)(F)F)c2nc1-c1nnc(o1)C(O)(C(F)(F)F)CCCCNC2=O (single isomer, unassigned) [Compound 249, 16-amino-6-hydroxy-6,14-bis(trifluoromethyl)-18-oxa-3,4,11,17-tetrazatricyclo [11.3.1.12,5] octadeca-1(17),2,4,13,15-pentaen-12-one]"
6,< 500,"Nc1cc(C(F)(F)F)c2nc1-c1nnc(o1)[C@@](O)(C(F)(F)F)CCCCCN(CCc1ccccc1)C2=O [Compound 137, (6R)-17-amino-6-hydroxy-12-(2-phenylethyl)-6,15-bis (trifluoromethyl)-19-oxa-3,4,12,18-tetrazatricyclo [12.3.1.12,5] nonadeca-1(18),2,4,14,1 6-pentaen-13-one]"
